Test results from US20090035306A1 (KALYPSYS, INC., priority 2006, published 2009).

Tested on: Mice
Assay: In vivo GLP-1 secretion (GLP-1 protocol and GLP-1 assay)
Set-up: species or system mouse
Conditions: 30 mg/kg, portal vein blood
Method: Vehicle is CMC-Tween: 0.5% CMC+0.25% Tween 20 at an appropriate ml/kg. Dextrose dose per mouse=2 g dextrose/kg made from 0.5 g/ml stock dextrose solution. Compound 1 dose per mouse=30 mg/kg in CMC/Tween vehicle made from 4 mg/mL stock solution by adding 50 μL DMSO to 20 mg Compound 1, stirring to make a paste, adding 1 ml CMC/Tween with stirring, sonicating for 8 minutes on energy 05, and adjusting to 5 ml with CMC/Tween.
Mice (3 per group) were fasted at 6 am for an experiment at noon. Blood glucose was measured from tail nick blood using an Accucheck—Compact Monitoring Kit (Roche Diagnostics, Indianapolis Ind.). Baseline (time=−15 min) blood glucose concentration was determined for all mice. 2 g/kg dextrose (Hospira, Lake Forest, Ill.) was administered orally at time 0. Terminal blood samples were collected from the mice via portal vein draw (˜500 μL) into EDTA microtainer tubes at the following time points: −15, 0, 3, 6, 9, 12, 15, 20, 30 and 120 min. […] Plasma was stored in −80 C freezer to be analyzed for other chemistry measurements.
A GLP-1(Human, Mouse, Rat) ELA kit was used (ALPCO Diagnostics, Salem, N.H., Cat # 48-GLP-1-160) was used in a 96-well plate. […] 100 μl/well stop solution was added to each well to stop reaction, optical absorbance of wells read at 490 nm, and results calculated.

## O=c1c2ccccc2nc(-c2ccc(F)cc2)n1NCc1ccc(Br)cc1 [Example 1]
2 g/kg dextrose orally at time 0, time 20 min
  Plasma GLP-1, Mean: 9.61 ng/mL
2 g/kg dextrose orally at time 0, time −15 min (baseline)
  Plasma GLP-1, Mean: 6.30 ng/mL
